Source: patent publication US20060204443A1, “Methods for tumor treatment using dendrimer conjugates” (The Government of the USA as represented by the Secretary …, priority 2005, published 2006)
Entries after “also recorded” stand apart in the source; their conditions may differ.

How the values were obtained:
[1] = tested on: deep lymphatic system (lymph nodes, thoracic duct); assay: Whole-body dynamic 3D-micro-MRL after intracutaneous injection, normal mice (Examples 2, 3); format: in vivo; details: for Number of Mice in Which the Thoracic Duct was Visualized/Number of Mice Examined: Normal Mice, 0.1 μmolGd intracutaneously; for Axillary lymph node-to-background (muscle) signal intensity ratio / Axillary lymph node-to-liver signal intensity ratio: all time points examined; for Axillary lymph node-to-background (muscle) signal intensity ratio: FIG. 11A; for Axillary lymph node-to-liver signal intensity ratio: FIG. 11B
Procedure: (§1) The mice were anesthetized with 1.15 mg sodium pentobarbital (Dainabot, Osaka, Japan) by intraperitoneal injection, and then injected intracutaneously with 0.1 μmolGd of PAMAM-G8, DAB-G5, PAMAM-G4, Gadomer-17, or GPDM into four middle phalanges in all four extremities. Dynamic micro-MR images were obtained using a 1.5-Tesla superconductive magnet unit (Signa LX, General Electric Medical System, Milwaukee, Wis.) with a round birdcage type coil of 3 cm diameter fixed by a custom-made coil holder. Four to eight female mice (7 weeks old, 18-21 g body weight) in each group were used and each contrast agent was prepared at least three separate times for these imaging studies. The mice were wrapped with gauze to stabilize their body temperature and were placed at the center of the coils.
(§2) A 3D-fast spoiled gradient echo (3D-fastSPGR (efgre3d package; Signa Horizon, GE); repetition time/echo time 28.5/7.9 msec; inversion time 65 msec; 31.2 kHz, flip angle 30°, four excitations; 40 slice-encoding steps; scan time 7 min 36 seconds) with chemical shift fat-suppression was used 10, 20, 30, and 45 min after injection of the contrast agents. The coronal images were reconstructed with 0.6-mm section thickness at every 0.3-mm. The field of view was 6×3 cm and the size of the matrix was 512×256. The intensities of the regions of interest (for example, a whole axillary lymph node, and the liver) were measured, and then the time-intensity curves analyzed. The data were expressed as the axillary lymph node-to-muscle and the axillary lymph node-to-liver ratios. The slice data were processed into 3D images using the MIP method with the same window and level (window 3500 and level 2300) (Advantage Windows, General Electric Medical System). Two board-certified radiologists separately read a set of stereo views of 3D-MRL for all studies, and estimated the visualization of the thoracic duct. After imaging, the mice were sacrificed by carbon dioxide inhalation.
In this example, the PAMAM-G8 contrast agent is compared to GPDM. PAMAM-G8 was prepared as described in Example 2, and GPDM was purchased (Schering AG, Berlin, Germany). Animal models, administration of the contrast agents, and 3D-micro-MRL were as described in Example 2.

[2] = tested on: axillary lymph nodes and their lymphatic vessels; assay: Dynamic 3D-MR lymphangiography, effect of contrast agent size (Example 4); format: in vivo, athymic nu/nu mice; details: for Visualization of axillary lymph nodes and their lymphatic vessels: 6-36 minutes post-injection into mammary gland; for Depiction of lymphatic vessels / Signal intensity within the axillary lymph nodes in comparison to G6 and G8 / Signal intensity of adjacent muscle in comparison to G6 and G8: mouse, in vivo; for Signal intensity within the axillary lymph node (enhancement ratio, lymph node / adjacent muscle): 0.15 μmolGd/5 μL
Procedure: Mice were anesthetized with 1.15 mg sodium pentobarbital (Dainabot, Osaka, Japan) by intraperitoneal injection. Then 0.15 μmolGd/5 μL of all nano-size contrast agents or 0.45 μmolGd/5 μL of Gd-[DTPA]-dimeglumine were injected into normal mammary glands or mammary tissue surrounding a tumor. Dynamic MR images were obtained using a 1.5-Tesla superconductive magnet unit (Signa LX, General Electric Medical System, Milwaukee, Wis.) with a birdcage type coil of 3 cm diameter fixed by a custom-made coil holder. The mice were wrapped with gauze to conserve their body temperature and were placed at the center of the coils.
In order to evaluate the effect of contrast agent molecular size on the ability to visualize the lymphatics and lymph nodes of athymic nu/nu mice, thirty five non-tumor bearing nu/nu mice were divided into seven groups (n=5). The mice were evaluated with 3D-fast spoiled gradient echo (3D-fastSPGR (efgre3d package; Signa Horizon, GE); repetition time/echo time 19.2/7.2 msec; inversion time 47 msec; bandwidth 31.2 kHz, flip angle 30°, 4 excitations; 36 slice encoding steps; scan time 4 minutes 49 seconds) with chemical shift fat-suppression at 6, 12, 18, 24, 30, and 36 minutes post-injection of each contrast agent. The coronal images were reconstructed with 0.6-mm section thickness every 0.3-mm. The field of view was 8×4 cm and the size of the matrix was 512×256. The slice data were processed into 3D images using the maximum intensity projection (MIP) method with the same window and level (window 3500 and level 2100) (Advantage Windows, General Electric Medical System). The enhancement ratio was calculated by taking the average signal intensity in the axillary lymph node and dividing it by the signal intensity in the adjacent muscle.

[3] = tested on: lymphatic vessels and lymph nodes of disease model mice; assay: 3D-micro-MRL in lymphatic disease models (Concanavalin A lymphangitis, IL-15 transgenic); format: in vivo; details: for Visualization of lymph nodes in lymphoproliferation/lymphoma: 45 minutes after injection
Procedure: To generate a lymphangitis model, Concanavalin A ([…]) (Sigma, St. Louis, Mo.) was injected intravenously into C57BL6 mice (NCI, Frederick, Md.) 24 hours before MRI was performed.
Eight- to 10-month old IL-15 transgenic mice (on a C57BL6 background) were used as a chronic lymphoproliferative/neoplastic disease model because they manifested selective expansion of NK, CD8^+NK-T, γδIELs, and CD8 T cells in the periphery. Most of the lymph nodes collected from an aged IL-15 transgenic mouse were enlarged in size. The lesion of proliferated monoclonal lymphocytes often involved the lung and the subcutaneous lymphatic tissue.
as §1, §2

[4] = in vivo
[5] = Example 2, normal mice, 10-45 min after injection

Row | Substance | Number of Mice in Which the Thoracic Duct was Visualized/Number of Mice Examined ([1]; 10 min) | Number of Mice in Which the Thoracic Duct was Visualized/Number of Mice Examined ([1]; 20 min) | Number of Mice in Which the Thoracic Duct was Visualized/Number of Mice Examined ([1]; 30 min) | Number of Mice in Which the Thoracic Duct was Visualized/Number of Mice Examined ([1]; 45 min) | Axillary lymph node-to-background (muscle) signal intensity ratio [1] | Axillary lymph node-to-liver signal intensity ratio [1] | Visualization of axillary lymph nodes and their lymphatic vessels [2] | Depiction of lymphatic vessels [2] | Signal intensity within the axillary lymph nodes in comparison to G6 and G8 [2] | Visualization of lymph nodes in lymphoproliferation/lymphoma ([3]; IL-15 transgenic mice, FIG. 13) | Visualization of deep lymph nodes [1, 5] | also measured
1 | DAB-Am-128-(Gd-1B4M)128 dendrimer conjugate [DAB-G5] | 3/5 | 2/5 | 0/5 | 0/5 | significantly higher than that obtained with either PAMAM-G8 or PAMAM-G4 | nearly equivalent, but were significantly higher than that measured with GPDM | superior to the G2 and G4 PAMAM dendrimers; also recorded: better contrast than PAMAM dendrimer-based agents of similar sizes | neither agent depicted lymphatic vessels | lower signal intensities | considerable multiple lymph node swellings with central filling defects |  | 
2 | Gadomer-17 [reference compound] | 2/5 | 2/5 | 1/5 | 1/5 | significantly higher than that acquired with GPDM | nearly equivalent, but were significantly higher than that measured with GPDM | superior to the G2 and G4 PAMAM dendrimers; also recorded: better contrast than PAMAM dendrimer-based agents of similar sizes | neither agent depicted lymphatic vessels | lower signal intensities |  | allowed visualization of the deep lymph nodes, albeit not as clearly and brightly as the dendrimer-based agents | Clearance from the body ([4]; iv): rapidly cleared from the body; Signal intensity of adjacent muscle in comparison to G6 and G8 [2]: significantly higher than those measured with G6 and G8
3 | PAMAM-G4D-(Gd-1B4M)64 dendrimer conjugate | 4/5 | 4/5 | 3/5 | 2/5 | significantly higher than that measured with Gadomer-17 and GPDM | significantly higher than that acquired with PAMAM-G8, DAB G-5, or Gadomer-17 | able to depict the lymph nodes only faintly and then only up to 12 minutes post-injection |  |  |  |  | Survival in the blood circulation [4]: short survival in the blood circulation due to a rapid renal excretion without significant retention in other organs; Signal intensity of adjacent muscle in comparison to G6 and G8 ([2]; listed as G4): significantly higher than those measured with G6 and G8; also recorded: higher signal in the adjacent muscle; Signal intensity within the axillary lymph nodes in comparison to G6 and G8 ([2]; listed as G4): lower signal intensities; also recorded: significantly lower signal
4 | PAMAM-G7D-(Gd-1B4M)1024 dendrimer conjugate [PAMAM-G8] | 10/10 | 10/10 | 10/10 | 10/10 | significantly higher than that measured with Gadomer-17 and GPDM | nearly equivalent, but were significantly higher than that measured with GPDM | visualized at all time points in all 10 mice |  |  | considerable multiple lymph node swellings with central filling defects | enabled most of the deep lymph nodes to be visualized | Leakage out of the lymphatic vessels [4]: minimal leakage out of the lymphatic vessels; Visualization of lymphatic vessels ([1]; Example 2): better visualized with PAMAM-G8 compared to all other agents examined; Visualization by a radiologist of the thoracic duct ([1]; Example 2, all times after administration): in all mice at all times after administration; Visualization of deep lymph nodes ([1]; Example 3, FIG. 15): most deep lymph nodes throughout the body were visualized; Visualization of the thoracic duct ([1]; Example 3, FIG. 15): visualized in all six mice; Signal intensity within the axillary lymph node (enhancement ratio, lymph node / adjacent muscle) ([2]; 6 minutes post-injection): 1.7±0.2; Signal intensity within the axillary lymph node (enhancement ratio, lymph node / adjacent muscle) ([2]; 12 minutes post-injection): 2.3±0.2; Visualization of lymphatic vessels in lymphangitis ([3]; Concanavalin A lymphangitis model, FIG. 12): demonstrated the remarkable dilation of the lymphatic vessels throughout the body, especially in the liver; Visualization of dilation of lymphatic vessels ([3]; IL-15 transgenic mice, FIG. 13): best visualized with PAMAM-G8
